From ChEMBL document CHEMBL1201862, “PubChem BioAssay data set” (2004)
Where a name gives a salt, the structure may show the parent alone. Active and inactive are the calls of the source.

Assays:
[1] = biological target: Major prion protein (Homo sapiens, UniProt P04156); type: functional, cell-based
[2] = cells
[3] = biological target: Caspase-6 (Homo sapiens, UniProt P55212); experiment: human caspase-6 inhibitors, dose response, biochemical, VEID-R110 fluorescence, cherry-pick (AID 720632)
[4] = biological target: Caspase-7 (Homo sapiens, UniProt P55210); experiment: human caspase-7 inhibitors, dose response, selectivity assay for caspase-6 inhibitor project, biochemical, DEVD-R110 fluorescence, cherry-pick (AID 743295)
[5] = biological target: Caspase-8 (Homo sapiens, UniProt Q14790); experiment: caspase-8 inhibition counter-screen, dose response, selectivity assay for caspase-6 inhibitor project, biochemical, Z-IETD-R110 fluorescence, cherry-picked samples (AID 743294)
[6] = ADAM10 inhibitors, peptide cleavage, dose response, biochemical, QFRET (AID 743254);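 also: ADAM10 enzyme with the DM2 quenched FRET peptide as substrate; EDANS fluorescence gain as the protease cuts the substrate; inhibitor potency against ADAM10 proteolytic activity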
[7] = biological target: T1, Disintegrin and metalloproteinase domain-containing protein 17 (Homo sapiens, UniProt P78536); experiment: ADAM17 protease inhibitors, dose response, counter-screen for ADAM10 exosite inhibitor project, biochemical, quenched FRET substrate (AID 743253)
[8] = biological target: T1, Disintegrin and metalloproteinase domain-containing protein 17; experiment: exosite inhibitors of ADAM17, dose response, biochemical (AID 743260)
[9] = ADAM10 protease inhibitors, dose response, selectivity assay for ADAM17 exosite inhibitor project, biochemical, FRET peptide substrate, recombinant human ADAM10 (AID 743259);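 also: ADAM10 enzyme cleaving a FRET peptide substrate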
[10] = HEK293T cell cytotoxicity, dose response, cytotoxicity control, luminescence plate reader, powder samples, set 4 (AID 651863); type: functional, cell-based; conditions: HEK293
[11] = HeLa 2N DNA content increase, dose response, cell-based, IC50 (AID 1117349); type: functional
[12] = cells; type: functional, cell-based; conditions: INS-1E
[13] = HeLa 4N DNA content increase, dose response, cell-based, IC50 (AID 1117351); type: functional
[14] = cells; remark: listed apart in the source
[15] = P. falciparum 3D7-ScDHODH growth inhibitors, dose response, SYBR Green, dry powder samples (AID 1159570); type: functional, cell-based;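 also: parasite growth measured after 72 hours of compound exposure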
[16] = HepG2 cell cytotoxicity, dose response, cytotoxicity control, plate reader, dry powder samples (AID 1159569); type: functional, cell-based;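 also: inhibitor potency with signal falling toward the positive control level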
[17] = P. falciparum Dd2 growth inhibitors, dose response, SYBR Green, cherry-picked samples (AID 1159567); type: functional, cell-based
[18] = P. falciparum Dd2 growth inhibitors, dose response, SYBR Green, dry powder samples (AID 1159566); type: functional, cell-based;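 also: potency for growth inhibition with lower SYBR green DNA signal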
[19] = HepG2 cell cytotoxicity, dose response, cytotoxicity control, cherry-picked samples (AID 1159577); type: functional, cell-based
[20] = P. falciparum ATP4 D1247Y mutant growth inhibitors, dose response, NITD609-resistant line, SYBR Green, dry powder (AID 1159571); type: functional, cell-based;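 also: parasites synchronized at ring stage by sorbitol before testing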
[21] = HEK293 cell cytotoxicity, dose response, cytotoxicity control, cherry-picks, set 5 (AID 1053117); type: functional, cell-based
[22] = inhibitors of fibronectin matrix deposition, dose response, AH1F cells, Alexa488-FN fluorescence, cherry-picks (AID 1035475); type: functional, cell-based
[23] = biological target: Metabotropic glutamate receptor 5 (Rattus norvegicus, UniProt P31424); experiment: Identification of a glycine sulfonamide based non-MPEP site positive allosteric potentiator (PAM) of mGlu5 (calcium_assay).; type: functional
[24] = biological target: NAD-dependent protein deacylase sirtuin-5, mitochondrial (Homo sapiens, UniProt Q9NXA8); experiment: SIRT5 deacylase inhibitors, dose response, biochemical, fluorescence imaging, cherry-pick, set 6 (AID 720597)

In the case of `CCOC(=O)CSc1nc(C(C)(C)C)nc2ccccc12`, the IC50 [1] is reported as 6.98 µM (active) and the IC50 [2] is reported as > 138 µM (inactive).

With `CCCCN(C(=O)c1cccc(-n2cccc2)c1)c1c(N)n(Cc2ccccc2)c(=O)[nH]c1=O` the AC50 [3] was 4.26 µM (active), the AC50 [4] was > 22 µM (inactive) and the AC50 [5] was 46.1 µM (active).

With `Cc1cc(C)cc(NS(=O)(=O)c2ccc(NC(=S)NC(=O)c3ccc(Br)o3)cc2)c1` the IC50 [6] was 11.7 µM (inactive) and the IC50 [7] was > 69.5 µM (inactive).

For `COc1ccc(N(C)S(=O)(=O)c2cccc(C(=O)OC(C(=O)Nc3cc(C)cc(C)c3)c3ccccc3)c2)cc1` (centres undefined), the IC50 [8] was > 69.5 µM (inactive) and the IC50 [9] was > 69.5 µM (inactive).

In the case of `CCOC(=O)C(C(=O)OCC)c1cc(CNS(=O)(=O)c2ccc(C)cc2C)c2ccccc2n1`, the AC50 [10] is reported as > 52 µM (inactive).

For `Cc1ccccc1C(OCCN(C)C)c1ccccc1` (centres undefined) [ORPHENADRINE CITRATE], the IC50 [11] was > 10 µM (inactive), the IC50 [12] was > 33.3 µM (inactive) and the IC50 [13] was > 10 µM (inactive).

In the case of `CCCN1CCc2c(sc(NC(=O)C3CCN(S(=O)(=O)c4cccs4)CC3)c2C(N)=O)C1`, the AC50 [14] is reported as 5.17 µM (active).

For `Cc1cccc(S(=O)(=O)N2C[C@@H]3N[C@H](C2)[C@H]3c2ccc(-c3ccncc3)cc2)c1`, the AC50 [15] was 2.12 µM (active), the AC50 [16] was 41.5 µM (active) and the AC50 [17] was 1.84 µM (active). For the same compound, the AC50 [18] was 1.48 µM (active), the AC50 [19] was > 39 µM (inactive) and the AC50 [20] was 3.58 µM (active).

In the case of `O=S(=O)(c1cccc(F)c1)N1CC[C@H]2[C@H](CO)Nc3ccc(-c4cccc(F)c4)cc3[C@H]21`, the AC50 [21] is reported as > 52 µM (inactive) and the AC50 [22] is reported as 41.9 µM (active).

For `CC(C)(C)NC(=O)CN(c1cc(C(F)(F)F)ccc1Cl)S(C)(=O)=O`, the EC50 [23] was > 30 µM (inactive).

With `C[C@H](CO)N1C[C@H](C)[C@H](CN(C)Cc2ccncc2)Oc2ncc(C#CCN(C)C)cc2C1=O` the AC50 [24] was > 30 µM (inactive).
